Test [1] concerns Aedes aegypti. As to the kind of experiment: Double (dual) chamber assay, spatial repellence. Type of test: in vivo. Here is the method:
FIG. 1: Percentage of mosquitoes Aedes aegypti escaping over time the chamber treated with a stimulus. The four stimuli were the solvent propan-1,2-diol (grey triangles and dotted line), N,N-diethyl-meta-toluamide (medium grey diamonds), 2,6-dimethoxy-4-methylphenol (light gray squares) and 1,2,3-trimethoxy-5-propylbenzene (black circles). Each stimulus was injected during 40 min thanks to a forced evaporation system in the treated chamber containing the mosquitoes, causing their movement toward the untreated refuge chamber. Each point represents the mean number of mosquitoes in the untreated chamber (n=57, 6, 4 and 4 respectively)±SD at 10 min intervals.
The goal of this assay was to reproduce at a smaller scale the validation test for spatial repellent as described in WHO (2013; ISBN 978 92 4 150502 4).
The assay consists of a transparent cage (1200×755×700 mm; ˜0.63 m^3) covered by white paper. This cage is divided in two chambers of equal dimensions by a plasticized paper wall with square opening (200×200 mm) situated in the middle of the wall. At the beginning of the experiment, about 40 two-weeks old female Aedes aegypti mosquitoes are placed in the right chambers. Once the mosquitoes are settled inside this chamber (>5 min), the door between the chambers is opened. Then the stimulus is introduced into the mosquito chamber through a L-shape Teflon tube (40 mm) placed in the middle of the right Plexiglas wall. The stimulus is dispensed thanks to a Forced Evaporation System (Chappuis et al, 2015, DOI: 10.1021/acs.est.5b00692) at a rate of 0.1 mL/min in a nitrogen flow of 1 L/min, blended in a humid air flow of 9L/min before being carried to the L-shape Teflon tube. An air sucking system (˜150 L/min) is placed above the wall opening, between the two chambers (100 mm Ø), preventing the untreated chamber from being contaminated by the stimulus and limiting the stimulus accumulation in the treated chamber. […] Ten, 20, 30 and 40 minutes after the start of the stimulus injection, the number of mosquitoes that have moved to the untreated chamber is manually counted.

Test [2] deals with Aedes aegypti. As to the kind of experiment: Free flying room assay, spatial repellence with human volunteer. Type of test: in vivo. The source says: The goal of this large-scale test is to assess the propensity of stimulus released in the air to protect a human volunteer by limiting the mosquito presence in a protected space and the number of landing/biting. The protocol used to carry the test is following the guidelines indicated in WHO (2013; ISBN 978 92 4 150502 4).
A group of 50 Aedes aegypti female mosquitoes were introduced in one chamber of 25 m^3 one hour before the test started. The product was applied in the other chamber of 25 m^3 (“treated chamber”) and let evaporate for 30 minutes. The test started when the window separating the two chambers was opened in a tilt-on manner for another 30 minutes. Twenty minutes after the window was opened, a volunteer entered in the “treated chamber” and sat down for 10 minutes, exposing the forearm for the last 3 minutes to determine the probing activity (Protective Efficacy). Then, the connecting window was closed and the number of mosquitoes in each of the chambers was counted (Spatial Repellency). The negative controls were carried out following the same procedure but without the application of the stimulus. Three replicates of each treatment and of the negative control were conducted with three different volunteers.

Test [3] concerns Aedes aegypti. Put plainly: Warm Body assay, mosquito landings on treated warm body. The note with it: Aedes aegypti, read-out: Percentage of repellence of mosquitoes Aedes aegypti landing on the warm body. The test is classed as in vivo. Summed up:
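Compounds in ethanol (100 μL, various concentrations) were applied to a sandblasted glass dish covering the warm body (28.3 cm^2), with ethanol as control. Landings were counted automatically from 30 non-blood-fed, sugar-fed Aedes aegypti Rockefeller females aged 5–10 days, under 150 lux.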

For a further test, the system named is Ixodes ricinus. Put plainly: Warm Plate assay, tick repellence. The note with it: Ixodes ricinus, read-out: Percentage of repellence of ticks Ixodes ricinus on the warm plate.

For the compound `CCN(CC)C(=O)c1cccc(C)c1` [DEET, N,N-diethyl-meta-toluamide, reference compound], in the test with Aedes aegypti [1] (after 40 min of injection in the treated chamber), the “movement of mosquitoes towards the refuge chamber” value is on record as 16.2%±7.3%.

With `COc1cc(C)cc(OC)c1O` [compound 1537, 2,6-dimethoxy-4-methylphenol], the “mosquitoes landed on the volunteer” value in the test with Aedes aegypti [2] (in 3 minutes, negative control 60.7±2.5 landings) was 14.7±2.5. Also, in the test on Aedes aegypti [2] (large scale assay, 25 m3 chambers, compound released in the air), the “Spatial Repellence” value amounted to 64.3 ± 3.4%. Moreover, in the test with Aedes aegypti [2] (large scale assay, probing on volunteer forearm, 3 minutes), the Protective efficacy is 75.8 ± 3.9%. In the test on Aedes aegypti [2] (negative control 82.5±3.7%), the “mosquito entered the treated chamber” value was determined as 29.5±2.8%. Further, in the test with Aedes aegypti [3] (0.0032 mg/mL (Table 2)), the pest or weed control at 3.2 µg/mL is 0%. Also, the pest or weed control at 16 µg/mL in the test with Aedes aegypti [3] (0.016 mg/mL (Table 2)) was found to be 35%. For the same compound, in the test with Aedes aegypti [3] (0.0357 mg/mL (Table 2)), the pest or weed control at 35.7 µg/mL was 36%. The pest or weed control at 80 µg/mL in the test on Aedes aegypti [3] (0.08 mg/mL (Table 2)) was determined as 40%. Further, in the test on Aedes aegypti [3] (0.178 mg/mL (Table 2)), the pest or weed control at 178 µg/mL was found to be 62%. In addition, the pest or weed control at 400 µg/mL in the test with Aedes aegypti [3] (0.4 mg/mL (Table 2)) is 89%; in the test on Ixodes ricinus, 16.7%. The pest or weed control at 890 µg/mL with Aedes aegypti [3] (0.89 mg/mL (Table 2)) came to 84%. Further, the values for the pest or weed control at 2000 µg/mL with Aedes aegypti [3] (2 mg/mL (Table 2)) and with Ixodes ricinus were 100% and 58.3%, respectively. Besides, the pest or weed control at 10000 µg/mL in the test with Aedes aegypti [3] (10 mg/mL (Table 2)) worked out at 100%; in the test with Ixodes ricinus, 72.7%. Further, the “plateau of mosquitoes moved to the untreated chamber” value in the test with Aedes aegypti [1] (after 30 min of injection) was about 42%.
